In US8323656B2, “Antigen determinant of rheumatoid arthritis-specific autoantibody and use thereof” (priority 2007, dated 2012):

Tested on: RA-specific antibodies (4 anti-CCP2-positive sera)
Test: Indirect (inhibition) ELISA: cross-reactivity of analytes with RA-specific antibodies, immobilized CCP2 as capture antigen
Format: binding, human
Design: Cross-reactivity of antibodies with the named analyte: concentration or dose not given beside the values
Details: for Cross-reactivity (%) of RA-specific antibody, modified α-amino acid: alkylation + acetylation: acetylated amino acid methyl ester of the amino acid named; for Cross-reactivity (%) of RA-specific antibody, modified α-amino acid: alkylation + acetylation / Cross-reactivity (%) of RA-specific antibody, modified α-amino acid: acetylation / Cross-reactivity (%) of RA-specific antibody, modified α-amino acid: alkylation: 0 = less than 1%; for Cross-reactivity (%) of RA-specific antibody, modified α-amino acid: acetylation: acetylated derivative of the amino acid named; for Cross-reactivity (%) of RA-specific antibody, modified α-amino acid: alkylation: methyl esterified (Me) derivative of the amino acid named; for Cross-reactivity (%) of RA-specific antibody, α-amino acid: unmodified α-amino acid, 0 = cross-reactivity less than 1%; for Cross-reactivity of antibodies with the named analyte: the analyte itself is named; for Inhibition of antibody binding to the immobilized CCP2: FIG. 1 and 2, analyte at 50 mM, 4 sera, result in words
From the text: A complete set of 21 amino acids and their derivatives were used as analytes to determine if any analyte inhibited the action of the detector antibody in binding to the capture antigen. Determination was made by observation at the single AA level through a series of moving windows of different derivatization. Following this procedure ensures that no antigenic elements of the epitope are missed as long as the possible AA derivatives are available. The analysis began in the fluid phase, wherein initially, the detector antibody was incubated with each of the analytes. After overnight incubation at 4° C., 100 μl of analyte preadsorbed detector antibody per well were added into 96-well microplate which immobilized CCP2 on the surface, and was incubated for 1 hour at room temperature with shaking. […] The reaction was stopped by adding 100 μl of 0.5 M H2SO4 per well and the results were estimated at A450 nm.
The concept of indirect ELISA was based upon an inhibition test between an unknown amount of analyte and a known amount of immobilized antigen for a limited number of detector antibody binding-sites. If the contents of detector antibody and immobilized antigen are kept constant, the distribution of detector antibody between immobilized antigen bound detector antibody and analyte bound detector antibody is dependent upon the amount of sample analyte. The mass of immobilized antigen bound detector antibody is inversely proportional to the amount of analyte bound detector antibody.
As described in FIG. 1, Amino Acid Profiles for the Antigenic Determinant, ELISA was carried out with sera from Euro-diagnostica (serum 1) and from three patients (serum 2, 3, and 4) with RA to CCP2 positive at various concentrations of different amino acids. […] The horizontal line at 100% represents the control percent binding of the CCP2 to the antibody.
As described in FIG. 2, Acetylamino Acid Profiles for the Antigenic Determinant, ELISA was carried out with sera from Euro-diagnostica (serum 1) and from three patients (serum 2, 3, and 4) with RA to CCP2 positive at various concentrations of different acetylamino acids. […] The horizontal line at 100% represents the control percent binding of the CCP2 to the antibody.
As described in FIG. 3, Alkylamino Acid Profiles for the Antigenic Determinant, ELISA was carried out with sera from Euro-diagnostica (serum 1) and from three patients (serum 2, 3, and 4) with RA to CCP2 positive at various concentrations of different alkylamino acids. […] The horizontal line at 100% represents the control percent binding of the CCP2 to the antibody.
As described in FIG. 4, Acetylamino Acid Methyl Ester Profiles for the Antigenic Determinant, ELISA was carried out with sera from Euro-diagnostica (serum 1) and from three patients (serum 2, 3, and 4) with RA to CCP2 positive at various concentrations of different acetylamino acid methyl esters. […] The horizontal line at 100% represents the control percent binding of the CCP2 to the antibody.

Compound	Cross-reactivity (%) of RA-specific antibody, modified α-amino acid: alkylation + acetylation [%]	Cross-reactivity (%) of RA-specific antibody, modified α-amino acid: acetylation [%]	Cross-reactivity (%) of RA-specific antibody, modified α-amino acid: alkylation	Cross-reactivity (%) of RA-specific antibody, α-amino acid [%]	Cross-reactivity of antibodies with the named analyte	Inhibition of antibody binding to the immobilized CCP2
C[C@H](N)C(=O)O [Alanine]	0	0	^Me0%	0	–	–
COC(=O)[C@@H](N)CCCN=C(N)N [Arg-Me]	–	–	–	–	6%	–
N=C(N)NCCC[C@H](N)C(=O)O [Arginine]	13	6	^Me5%	0	zero	–
NC(=O)C[C@H](N)C(=O)O [Asparagine]	0	0	^Me0%	0	–	–
N[C@@H](CC(=O)O)C(=O)O [Aspartic acid]	0	0	^Me0%	0	–	–
CCCCOC(=O)[C@@H](N)CCCNC(N)=O [Cit-Be]	–	–	–	–	124%	–
CCOC(=O)C(N)CCCNC(N)=O (stereo not shown) [Cit-Ee]	–	–	–	–	72%	–
COC(=O)C(N)CCCNC(N)=O (stereo not shown) [Cit-Me]	–	–	–	–	81%	–
CCCOC(=O)C(N)CCCNC(N)=O (stereo not shown) [Cit-Pe]	–	–	–	–	115%	–
COC(=O)[C@@H](N)CS [Cys-Me]	–	–	–	–	48%	–
N[C@@H](CS)C(=O)O [Cysteine]	57	48	^Me50%	0	0%	limited capability to inhibit
N[C@@H](CCC(=O)O)C(=O)O [Glutamic acid]	0	0	^Me0%	0	–	–
NC(=O)CC[C@H](N)C(=O)O [Glutamine]	0	0	^Me0%	0	–	–
NCC(=O)O [Glycine]	0	0	^Me0%	0	–	–
N[C@@H](Cc1c[nH]cn1)C(=O)O [Histidine]	0	0	^Me0%	0	–	–
CC[C@H](C)[C@H](N)C(=O)O [Isoleucine]	0	0	^Me0%	0	–	–

Compound	Cross-reactivity (%) of RA-specific antibody, modified α-amino acid: alkylation + acetylation [%]	Cross-reactivity (%) of RA-specific antibody, modified α-amino acid: acetylation [%]	Cross-reactivity (%) of RA-specific antibody, modified α-amino acid: alkylation	Cross-reactivity (%) of RA-specific antibody, α-amino acid [%]	Cross-reactivity of antibodies with the named analyte	Inhibition of antibody binding to the immobilized CCP2
CC(C)C[C@H](N)C(=O)O [Leucine]	0	0	^Me0%	0	–	–
NCCCC[C@H](N)C(=O)O [Lysine]	0	0	^Me0%	0	–	–
COC(=O)C(N)CCSC (stereo not shown) [Met-Me]	–	–	–	–	0%	–
CSCC[C@H](N)C(=O)O [Methionine]	0	0	^Me0%	0	0%	–
N[C@@H](Cc1ccccc1)C(=O)O [Phenylalanine]	0	0	^Me0%	0	–	–
O=C(O)[C@@H]1CCCN1 [Proline]	0	0	^Me0%	0	–	–
COC(=O)[C@@H](N)CO [Ser-Me]	–	–	–	–	0%	–
N[C@@H](CO)C(=O)O [Serine]	0	0	^Me0%	0	0%	–
C[C@@H](O)[C@H](N)C(=O)O [Threonine]	0	0	^Me0%	0	–	–
N[C@@H](Cc1c[nH]c2ccccc12)C(=O)O [Tryptophan]	0	0	^Me0%	0	–	–
N[C@@H](Cc1ccc(O)cc1)C(=O)O [Tyrosine]	0	0	^Me0%	0	–	–
CC(C)[C@H](N)C(=O)O [Valanine]	0	0	^Me0%	0	–	–
COC(=O)[C@H](CCCNC(=N)N)NC(C)=O [acetyl-Arg-Me]	–	–	–	–	13%	–
CC(=O)N[C@@H](CCCN=C(N)N)C(=O)O [acetyl-Arg]	–	–	–	–	5%	limited inhibition
COC(=O)C(CCCNC(N)=O)NC(C)=O (stereo not shown) [acetyl-Cit-Me]	–	–	–	–	100%	–
